Laboratory results taken from US20230159931A1, “TARGETING THE PALMOTYLATION/DEPALMOTYLATION CYCLE TO TREAT INFLAMMATORY DISEASES” (CORNELL UNIVERSITY, priority 2020, published 2023).
Entries after “also recorded” stand apart in the source; their conditions may differ.

Columns and labels:
[1] = tested on: STAT3 target genes (RORC and CCND1); assay: Expression of STAT3 target genes under TH17 differentiation conditions (qPCR); format: cell-based; details: mouse spleen cells
Method: Splenocytes were isolated from mice by classic methods. In brief, the excised spleen was sliced into small pieces and placed onto a strainer (352350, Thermo Fisher) attached to a 50 ml conical tube. The sliced spleen was pressed through the strainer using the plunger end of a syringe and the cells were washed through the strainer with excess 4° C. PBS. The cell suspension was centrifuged at 500 g for 5 min at 4° C. The cell pellet was suspended in 2 ml of red blood cell lysing buffer (R7757, Sigma) for 5 min at RT and diluted with 30 ml PBS. The cells were centrifuged at 500 g for 5 min at RT. The cell pellet was suspended in 20 ml of 37° C. DMEM media, mixed well with 10 ml of Percoll density gradient media (17089102, VWR) and centrifuged at 2,500 g for 5 min at RT. The collected cells were seeded in 37° C. RPMI 1640 medium (12633012, Gibco) supplemented with 10% FBS at 5×10^6 cells per ml. Splenocytes were cultured under TH17-polarizing conditions: 3 ng ml^−1 TGF-β (100-21, PeproTech), 40 ng ml^−1 IL-6 (200-06, PeproTech), 30 ng ml^−1 IL-23 (200-23, PeproTech), 20 ng ml^−1 tumour necrosis factor (TNF) (300-01A, PeproTech) and 10 ng ml^−1 IL-1β (200-01B, PeproTech). […]
Because STAT3 is important for TH17 cell differentiation, the inventors evaluated whether the palmitoylation-depalmitoylation cycle of STAT3 promotes the generation of TH17 cells from mouse spleen cells. […]

NZB/W F1 female mice = assay: Lupus nephrosis mouse model (proteinuria analysis); format: in vivo; details: 25 mg/Kg IP three times per week for 8 weeks, from 25-week age
Method: FIGS. 17A-17B. Lupus Nephrosis Mouse Model: APT2 inhibitor ML349 decreases protein concentration in the mouse urine. (A) Protein concentration in urine (all data points), (B) Protein concentration in urine (averaged, with error bars). NZB/W F1 female mice at 25-week were administered via IP injection with either vehicle solution (DMSO+PBS) or APT2 inhibitor ML349 at 25 mg/Kg three times per week for 8 weeks. After 4 weeks of treatment, mice were evaluated for lupus incidence weekly through proteinuria analysis by collecting the urines and measuring the protein concentrations in the urine.
NZB/W F1 female mice at 25-week were administered via IP injection with either vehicle solution (DMSO+PBS) or APT2 inhibitor ML349 at 25 mg/Kg three times per week for 8 weeks. After 4 weeks of treatment, mice were evaluated for lupus incidence weekly through proteinuria analysis by collecting the urines and measuring the protein concentrations in the urine. […] This was the first time that the inventors did this experiment and after the experiment began, the inventors noticed that at 25 weeks, the disease phenotype was already very severe. It is expected that if the ML349 treatment is begun earlier, the effect might be more obvious and significant.

[2] = Tolerability of ML349 in mice; format: in vivo; details: 50 mg kg^−1, mice
Excerpt: The inventors tested whether the pharmacological inhibition of APT2 with ML349 could reduce dextran sulfate sodium (DSS)-induced colitis in mice, an experimental model for IBD.

[3] = tested on: TH17 cell differentiation; assay: TH17 cell differentiation of mouse splenocytes by flow cytometry (CD4- and IL-17-positive cells); format: cell-based; details: cytokine cocktail and different concentrations of ML349 for 4 days
Method: FIGS. 3A-3E. The STAT3 palmitoylation-depalmitoylation cycle promotes TH17 cell differentiation. (A) DHHC7 promotes phosphorylation of wild-type STAT3, but not of the C108S mutant, in mouse splenocytes. Left, STAT3 and p-STAT3 blots; right, quantification of the relative p-STAT3 levels. (B) TH17 cell differentiation was quantified in the splenocyte samples in A by flow cytometry. […] Mouse splenocytes were treated with a cytokine cocktail (3 ng ml^−1 TGF-β, 40 ng ml^−1 IL-6, 30 ng ml^−1 IL-23, 20 ng ml^−1 TNF and 10 ng ml^−1 IL-1β) and different concentrations of ML349 for 4 days, then collected and analysed by flow cytometry to detect CD4- and IL-17-positive cells. (D) DHHC7 knockout in splenocytes inhibits TH17 cell differentiation. Wild-type and DHHC7-knockout mouse splenocytes were treated with a cytokine cocktail for 4 days to initiate differentiation, then the cells were collected and analyse by flow cytometry to detect CD4- and IL-17-positive cells. (E) Left, STAT3 and p-STAT3 blots of wild-type and DHHC7-knockout splenocytes. Right, quantification of the relative p-STAT3 levels. Data are mean±s.e.m. **P<0.01.
Splenocytes were isolated from mice by classic methods. […]
For FACS analysis, flow cytometry was performed using 1×10^6 cells per sample. […] The cells were detected by Attune Flow Cytometer (Thermo Fisher) and analysed with FCS Express 6 software (De Novo Software).

Structure (SMILES): COc1ccc(N2CCN(C(=O)c3cc4c(s3)-c3ccccc3S(=O)(=O)C4)CC2)cc1 [ML349]
- expression of STAT3 target genes (RORC and CCND1) [1]: significantly decreased
- protein concentrations in the urine (NZB/W F1 female mice): decrease
- tolerability [2]: well tolerated
- differentiation of TH17 cells [3]: significantly decreased; also recorded: decreases TH17 cell differentiation in a dose-dependent manner
